Measurements as given in US9352013B2, “Uses of bremelanotide in therapy for female sexual dysfunction” (Palatin Technologies, Inc., priority 2012, dated 2016).
Where two headings read alike, the source gives them in different places.

Key:
Format in all cases: in vivo, human
[1] = Single SC doses in male subjects with ED and preexisting hypertension: tolerability; conditions: single subcutaneous doses of 4 and 6 mg
[2] = tested on: premenopausal females with FSAD and/or HSDD; assay: Example 1: placebo-controlled at-home trial of subcutaneous bremelanotide, efficacy (SSEs, FSFI, FSDS-DAO)
Method: A multi-centered, placebo-controlled, randomized, parallel group trial with fixed dose levels and designed to identify appropriate doses of bremelanotide administered by subcutaneous injection in premenopausal females with FSAD and/or HSDD, under the conditions of home use, was conducted. Subjects received a single dose of placebo (subject-blinded) in-clinic followed by 4 weeks of subject-blinded placebo treatment at home (subjects self-administered treatment as needed). Subjects who continued to qualify for the trial then received 2 single in-clinic doses of randomized treatment (double-blind; approximately one week apart), followed by 12 weeks of double-blind treatment at home (subjects self-administered treatment as needed).
Subjects were randomized (1:1:1:1) to one of four study treatment groups (placebo or doses with 0.75, 1.25, or 1.75 mg net weight bremelanotide). Randomization occurred immediately prior to the first in-clinic dose of double-blind treatment. Study drug and placebo was provided as pre-filled syringes in 0.3 mL volume, with subjects instructed on self-administration into the anterior thigh or abdomen.
Enrolled subjects were premenopausal women who met the diagnostic criteria for FSAD, HSDD, or mixed FSAD/HSDD, utilizing a diagnostic screening guide including categorization of the sexual dysfunction as both acquired (vs. lifelong) and generalized (vs. situational). Subjects enrolled had previously been sexually “functional;” that is, experienced sexual arousal during sexual activity and/or a normal level of desire at some point in the past for a period of at least 2 years.
Enrolled subjects were provided with an electronic diary system (eDiary) with instructions to complete an FSEP-R questionnaire with each sexual encounter. At selected in-clinic visits, subjects completed other assessment questionnaires, including SIDI-F, FSDS-DAO, FSFI, GAQ and WITS-9. In addition, various vital sign measures were conducted and blood and urine samples collected at selected in-clinic visits.
The measurement period was defined as the number of events during the last four weeks of treatment minus the number of events during the baseline period, with outcomes reported for pooled results of women taking the two highest bremelanotide dose levels versus placebo.
The FSFI is a 19-item questionnaire which provides for an additional measurement of changes over a longer recall period. • FSFI total score improvement (mean change of 3.55 vs. 1.88, p=0.0017) • Reduced associated distress related to sexual dysfunction, as measured by the Female Sexual Distress Scale-DAO (FSDS-DAO). The FSDS-DAO 15-item questionnaire is designed to assess and quantify the change in personal distress associated with FSD. • FSDS-DAO total score improvement (mean change of −11.1 vs. −6.8, p=0.036).

[3] = Example 1: pharmacokinetics after in-clinic subcutaneous dose; conditions: for AUC(0-t) / Cmax: human, sc
Method: Ambulatory blood pressure monitoring was conducted following both placebo and randomized treatment group in-clinic administrations. Three periods of ambulatory blood pressure monitoring were included, the first period was from before to 24 hours after a single, in-clinic dose of placebo (to establish a baseline); the second and third periods occurred from before to 24 hours after each of 2 single, in-clinic doses of double-blind treatment, administered within 14 days of each other. Blood samples for pharmacokinetic analysis were collected before and at 0.5, 1.0, and 2.0 hours after each in-clinic bremelanotide single-dose treatment (double-blind only), to permit analysis of concentration-response relationships.
Mean pharmacokinetic parameters were determined by bremelanotide dose and visit, including Cmax determinations (the highest ng/mL concentration at either 0.5 or 1 hour post administration) and AUC determinations at two hours and, for a subset of subjects in each group, at four hours.
The Cmax for the mean curve was calculated by averaging the concentrations at each time point (0.5, 1, 2 and 4 hours), and this is shown in FIG. 3.

In the case of `CCCC[C@H](NC(C)=O)C(=O)N[C@H]1CC(=O)NCCCC[C@@H](C(=O)O)NC(=O)[C@H](Cc2c[nH]c3ccccc23)NC(=O)[C@H](CCCNC(=N)N)NC(=O)[C@@H](Cc2ccccc2)NC(=O)[C@H](Cc2c[nH]cn2)NC1=O` [bremelanotide, Ac-Nle-cyclo(-Asp-His-D-Phe-Arg-Trp-Lys)-OH], the Tolerability [1] is reported as “improved tolerability”, the “Frequency of Satisfying Sexual Events (SSEs), mean at end of study” value ([2]; pooled 1.25 mg and 1.75 mg SC, from 1.6 at baseline, placebo 1.7 to 1.9) is reported as 2.4 and the “FSFI total score improvement, mean change from baseline to end of study” value ([2]; pooled 1.25 mg and 1.75 mg SC, placebo 1.88) is reported as 3.55. For the same molecule, the “FSDS-DAO total score improvement, mean change from baseline to end of study” value ([2]; pooled 1.25 mg and 1.75 mg SC, placebo −6.8) was −11.1, the “Increase in SSEs” value ([2]; pooled 1.25 mg and 1.75 mg SC, versus 12% with placebo) was 50% and the “Efficacy in premenopausal women with FSDs” value ([2]; self-administered at home at 1.25 and 1.75 mg SC) was “effective in decreasing distress, increasing arousal and desire, and increasing the number of SSEs”. For the same molecule, the “Percentage of women with end-of-study FSFI and FSDS-DAO total score levels above 26.5 and 18” value ([2]; versus placebo, exploratory analysis) was “higher percentage”, the “Cmax, Max” value ([3]; 1.75 mg SC, Visit 5) was 115 ng/mL and the “Cmax, Min” value ([3]; 1.75 mg SC, Visit 5) was 15 ng/mL. The AUC(0-t) ([3]; blood, 0.75 mg, 0.75 mg SC, Visit 5, read-out: AUC(0-2h), Median) was 52 ng·h/mL, the AUC(0-t) ([3]; blood, 0.75 mg, 0.75 mg SC, Visit 5, read-out: AUC(0-4h), Median) was 80 ng·h/mL and the Cmax ([3]; blood, 0.75 mg, 0.75 mg SC, Visit 5, read-out: Cmax, Median) was 36 ng/mL. For the same molecule, the AUC(0-t) ([3]; blood, 0.75 mg, 0.75 mg SC, Visit 7, read-out: AUC(0-2h), Mean) was 53 ng·h/mL, the AUC(0-t) ([3]; blood, 0.75 mg, 0.75 mg SC, Visit 7, read-out: AUC(0-2h), Median) was 52 ng·h/mL and the AUC(0-t) ([3]; blood, 0.75 mg, 0.75 mg SC, Visit 7, read-out: AUC(0-4h), Mean) was 80 ng·h/mL. It also gave an AUC(0-t) ([3]; blood, 0.75 mg, 0.75 mg SC, Visit 7, read-out: AUC(0-4h), Median) of 79 ng·h/mL, a Cmax ([3]; blood, 0.75 mg, 0.75 mg SC, Visit 7, read-out: Cmax, Median) of 37 ng/mL and an AUC(0-t) ([3]; blood, 1.25 mg, 1.25 mg SC, Visit 5, read-out: AUC(0-2h), Mean) of 86 ng·h/mL. The AUC(0-t) ([3]; blood, 1.25 mg, 1.25 mg SC, Visit 5, read-out: AUC(0-2h), Median) was 81 ng·h/mL, the AUC(0-t) ([3]; blood, 1.25 mg, 1.25 mg SC, Visit 5, read-out: AUC(0-4h), Mean) was 138 ng·h/mL and the AUC(0-t) ([3]; blood, 1.25 mg, 1.25 mg SC, Visit 5, read-out: AUC(0-4h), Median) was 136 ng·h/mL. For the same molecule, the Cmax ([3]; blood, 1.25 mg, 1.25 mg SC, Visit 5, read-out: Cmax, Mean) was 60 ng/mL, the Cmax ([3]; blood, 1.25 mg, 1.25 mg SC, Visit 5, read-out: Cmax, Median) was 56 ng/mL and the AUC(0-t) ([3]; blood, 1.25 mg, 1.25 mg SC, Visit 7, read-out: AUC(0-2h), Mean) was 84 ng·h/mL. It also gave an AUC(0-t) ([3]; blood, 1.25 mg, 1.25 mg SC, Visit 7, read-out: AUC(0-2h), Median) of 84 ng·h/mL, an AUC(0-t) ([3]; blood, 1.25 mg, 1.25 mg SC, Visit 7, read-out: AUC(0-4h), Mean) of 142 ng·h/mL and an AUC(0-t) ([3]; blood, 1.25 mg, 1.25 mg SC, Visit 7, read-out: AUC(0-4h), Median) of 144 ng·h/mL. The Cmax ([3]; blood, 1.25 mg, 1.25 mg SC, Visit 7, read-out: Cmax, Mean) was 60 ng/mL, the Cmax ([3]; blood, 1.25 mg, 1.25 mg SC, Visit 7, read-out: Cmax, Median) was 60 ng/mL and the AUC(0-t) ([3]; in vivo, 0.75 mg, 0.75 mg SC, Visit 5, read-out: AUC(0-2h), Mean) was 53 ng·h/mL. The AUC(0-t) ([3]; in vivo, 0.75 mg, 0.75 mg SC, Visit 5, read-out: AUC(0-4h), Mean) was 84 ng·h/mL, the Cmax ([3]; in vivo, 0.75 mg, 0.75 mg SC, Visit 5, read-out: Cmax, Mean) was 37 ng/mL and the Cmax ([3]; in vivo, 0.75 mg, 0.75 mg SC, Visit 7, read-out: Cmax, Mean) was 38 ng/mL. It also gave an AUC(0-t) ([3]; in vivo, 1.75 mg, 1.75 mg SC, Visit 5, read-out: AUC(0-2h), Mean) of 112 ng·h/mL, an AUC(0-t) ([3]; in vivo, 1.75 mg, 1.75 mg SC, Visit 5, read-out: AUC(0-2h), Median) of 112 ng·h/mL and an AUC(0-t) ([3]; in vivo, 1.75 mg, 1.75 mg SC, Visit 5, read-out: AUC(0-4h), Mean) of 178 ng·h/mL. It also gave an AUC(0-t) ([3]; in vivo, 1.75 mg, 1.75 mg SC, Visit 5, read-out: AUC(0-4h), Median) of 179 ng·h/mL, a Cmax ([3]; in vivo, 1.75 mg, 1.75 mg SC, Visit 5, read-out: Cmax, Mean) of 77 ng/mL and a Cmax ([3]; in vivo, 1.75 mg, 1.75 mg SC, Visit 5, read-out: Cmax, Median) of 78 ng/mL. For the same molecule, the AUC(0-t) ([3]; in vivo, 1.75 mg, 1.75 mg SC, Visit 7, read-out: AUC(0-2h), Mean) was 112 ng·h/mL, the AUC(0-t) ([3]; in vivo, 1.75 mg, 1.75 mg SC, Visit 7, read-out: AUC(0-2h), Median) was 111 ng·h/mL and the AUC(0-t) ([3]; in vivo, 1.75 mg, 1.75 mg SC, Visit 7, read-out: AUC(0-4h), Mean) was 184 ng·h/mL. It also gave an AUC(0-t) ([3]; in vivo, 1.75 mg, 1.75 mg SC, Visit 7, read-out: AUC(0-4h), Median) of 180 ng·h/mL, a Cmax ([3]; in vivo, 1.75 mg, 1.75 mg SC, Visit 7, read-out: Cmax, Mean) of 78 ng/mL and a Cmax ([3]; in vivo, 1.75 mg, 1.75 mg SC, Visit 7, read-out: Cmax, Median) of 77 ng/mL. The Cmax ([3]; in vivo, 1.75 mg, 1.75 mg subcutaneous dose, Example 1, read-out: Cmax, maximum) was 115 ng/mL, the Cmax ([3]; in vivo, 1.75 mg, 1.75 mg subcutaneous dose, Example 1, read-out: Cmax, mean) was 77.2 ± 19.5 ng/mL and the Cmax ([3]; in vivo, 1.75 mg, 1.75 mg subcutaneous dose, Example 1, read-out: Cmax, median) was 78 ng/mL. For the same molecule, the Cmax ([3]; in vivo, 1.75 mg, 1.75 mg subcutaneous dose, Example 1, read-out: Cmax, minimum) was 15 ng/mL.
